What is called IC50 is the midpoint of a concentration-inhibition curve.

For this test, the target named is T1, human 11β-HSD1 (Homo sapiens, UniProt P28845).
T1 construct: host or cells: microsome fraction
T1 sequence (P28845 whole entry): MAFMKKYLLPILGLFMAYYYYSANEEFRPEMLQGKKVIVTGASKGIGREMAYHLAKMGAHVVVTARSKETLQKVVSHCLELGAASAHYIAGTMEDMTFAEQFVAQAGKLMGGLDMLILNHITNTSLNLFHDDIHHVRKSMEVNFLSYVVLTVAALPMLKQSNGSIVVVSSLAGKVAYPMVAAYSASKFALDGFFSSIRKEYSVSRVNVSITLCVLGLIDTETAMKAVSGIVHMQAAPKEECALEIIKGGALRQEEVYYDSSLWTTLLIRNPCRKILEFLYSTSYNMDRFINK
Description: Enzymatic 11beta-HSD1 test (SPA-based detection). The test is classed as biochemical. As to conditions: human 11β-HSD1 microsome fraction, [1,2-3H]-cortisone substrate, NADPH, 37° C. 1 hour, read-out: IC50 (nM), Biological activity in nanomolar. The method, then:
Enzymatic 11beta-HSD1 Test:
First of all, 20 μl of the human 11β-HSD1 microsome fraction (0.2 μg of protein), prepared in 50 mM HEPES, 0.1% BSA (w/v), were applied to a plate with 384 wells. The test compounds (0.09 μl) were applied to the assay plate in 100% DMSO. The reaction was started by addition of 20 μl of [1,2-^3H]-cortisone (0.1 μCi/[…]) in assay buffer comprising 25 mM HEPES, 100 mM KCl, 5 mM NaCl, 2 mM MgCl2 and 0.25 mM NADPH. The plate was agitated at 37° C. for 1 hour. At the same time, a stop solution comprising 20 mg/ml SPA-PVT beads, 1.6 mg/ml monoclonal cortisol antibody and 0.01 mM SSR110887 (inhibitor from the Biovitrium patent) in 50 mM HEPES, 1 M NaCl and 1 M KCl was stirred at room temperature. To stop the reaction, 25 μl of the stop solution were added to each well. The plate was agitated gently at room temperature for 1 further hour and then centrifuged at 500 gav for 1 min, in order that the SPA beads could settle out. […] The comparative compound was glycyrrhetinic acid.
Protein and radioactive substrate were dispensed with a Biomek FX unit (Beckman Coulter) for handling liquids. The test compounds were added with a Cybi-Well equipped with a 90 n1 pin tool (CyBio).
Lit.: Solly S, Mundt S S, Zokian H J, Juy-Fang Ding G, Hermanowski-Vosatka A, Strulovici B and Zheng W. High-throughput screening of 11β-Hydroxysteroid dehydrogenase type 1 in scintillation proximity format.
`CC1(COCc2ccccc2)OC(NC2CCCCC2)=NS(=O)(=O)C12CC2` (stereo not shown) [Example 6, (8-Benzyloxymethyl-8-methyl-4,4-dioxo-7-oxa-4lambda6-thia-5-aza-spiro[2.5]oct-5-en-6-yl)-cyclohexyl-amine]: the IC50 turned out to be 73 nM.

Turning to `CC(C)(O)C[C@H](NC1=NS(=O)(=O)C(C)(C)C(C)(C)O1)c1cccnc1` [Example 16, (S)-2-Methyl-4-pyridin-3-yl-4-(5,5,6,6-tetramethyl-4,4-dioxo-5,6-dihydro-4H-4lambda6-[1,4,3]oxathiazin-2-ylamino)-butan-2-ol], the IC50 turned out to be 586 nM.

Take `CC1(C)OC(NC23CCC(F)(CC2)CC3)=NS(=O)(=O)C1(C)C` [Example 9, (4-Fluoro-bicyclo[2.2.2]oct-1-yl)-(5,5,6,6-tetramethyl-4,4-dioxo-5,6-dihydro-4H-4lambda6-[1,4,3]oxathiazin-2-yl)-amine]: the IC50 was determined as 4 nM.

With `CC1(C(F)(F)F)OC(NC2CCCCC2)=NS(=O)(=O)C12CC2` (stereo not shown) [Example 13, Cyclohexyl-(8-methyl-4,4-dioxo-8-trifluoromethyl-7-oxa-4lambda6-thia-5-aza-spiro[2.5]oct-5-en-6-yl)-amine], the IC50 was 19 nM.

Regarding `C[C@H](NC1=NS(=O)(=O)C(C)(C)C(C)(C)O1)c1ccccc1F` [Example 21, [(S)-1-(2-Fluoro-phenyl)-ethyl]-(5,5,6,6-tetramethyl-4,4-dioxo-5,6-dihydro-4H-4lambda6-[1,4,3]oxathiazin-2-yl)-amine], the half-maximal inhibitory concentration (IC50) was 5 nM.

For the molecule `CC1(C)OC(NC23CCC(F)(CC2)CC3)=NS(=O)(=O)C12CC2` [Example 8, (8,8-Dimethyl-4,4-dioxo-7-oxa-4lambda6-thia-5-aza-spiro[2.5]oct-5-en-6-yl)-(4-fluoro-bicyclo[2.2.2]oct-1-yl)-amine], the IC50 was 22 nM.

For `CC1(C)OC(N[C@H]2CCC[C@H](O)C2)=NS(=O)(=O)C1(C)C` [Example 18, (1S,3S)-3-(5,5,6,6-Tetramethyl-4,4-dioxo-5,6-dihydro-4H-4lambda6-[1,4,3]oxathiazin-2-ylamino)-cyclohexanol], the IC50 is 560 nM.

Consider `CC1(CO)OC(NC2CCCCC2)=NS(=O)(=O)C12CC2` (stereo not shown) [Example 7, (6-Cyclohexylamino-8-methyl-4,4-dioxo-7-oxa-4lambda6-thia-5-aza-spiro[2.5]oct-5-en-8-yl)-methanol], for which the IC50 stood at 786 nM.

In the case of `CC1(C)OC(NC23CCC(CC2)CC3)=NS(=O)(=O)C1(C)C` [Example 15, Bicyclo[2.2.2]oct-1-yl-(5,5,6,6-tetramethyl-4,4-dioxo-5,6-dihydro-4H-4lambda6-[1,4,3]oxathiazin-2-yl)-amine], the IC50 came out at 4 nM.

`COCC1(C)OC(NC2CCCCC2)=NS(=O)(=O)C12CC2` (stereo not shown) [Example 4, Cyclohexyl-(8-methoxymethyl-8-methyl-4,4-dioxo-7-oxa-4lambda6-thia-5-aza-spiro[2.5]oct-5-en-6-yl)-amine]: the IC50 was determined as 462 nM.

Consider `CC1(C)OC(N[C@@H](CCO)c2ccccc2)=NS(=O)(=O)C12CC2` [Example 5, (S)-3-(8,8-Dimethyl-4,4-dioxo-7-oxa-4lambda6-thia-5-aza-spiro[2.5]oct-5-en-6-ylamino)-3-phenyl-propan-1-ol], for which the IC50 was determined as 37 nM.

For the molecule `CC1(C)OC(N[C@@H](CS(N)(=O)=O)c2ccc(F)cc2)=NS(=O)(=O)C1(C)C` (single isomer, unassigned) [Example 14], the IC50 came to 10 nM.

Turning to `CC1(C)OC(N[C@@H]2CCC[C@@H](O)C2)=NS(=O)(=O)C1(C)C` [Example 25, (1R,3R)-3-(5,5,6,6-Tetramethyl-4,4-dioxo-5,6-dihydro-4H-4lambda6-[1,4,3]oxathiazin-2-ylamino)-cyclohexanol], the IC50 is 289 nM.

Values taken from patent US8871758B2, “Tetrasubstituted oxathiazine derivatives, method for producing them, their use as medicine and drug containing said derivatives and the use thereof” (Sanofi, priority 2011, dated 2014).
